Reference: patent US7960427B2, “5-hydroxyindole-3-carboxylate derivatives and uses thereof” (priority 2004, dated 2011)
In brackets after ≈: the same amount, converted by molar mass. Structures can show the parent of a compound that is named as a salt.

Assays:
2.2.15 cells = test: Cytotoxicity (TC50) in 2.2.15 cells; format: cell-based
Protocol: (§1) All compounds were evaluated for their anti-HBV activities, namely the ability to inhibit the replication of HBV DNA and the production of HBsAg and HBeAg in HBV-infected 2.2.15 cells.
(§2) The samples were dissolved in DMSO for appropriate concentrations, and then each was diluted 3-fold with culture medium. The 2.2.15 cells were planted into 96-well culture plates. […] The culture supernatants and 2.2.15 cells were collected respectively on the 8th plant day. The secretion concentrations of HBsAg and HBeAg in the culture supernatants were measured by RIA on SPRIA Kit for Detection of HBsAg and HBeAg (Beijing North Institute of Biological Technology), and the replication of HBV DNA was measured by dot hybridization with a^32PdCTP (FuRui Biological Technology Ltd., China).

HBV DNA = test: In vitro anti-HBV activity: replication of HBV DNA in 2.2.15 cells (dot hybridization); format: cell-based, Hepatitis B virus (HBV); conditions: for IC50: Hepatitis B virus, read-out: DNA replication IC50; for DNA replication SI: selectivity index
Protocol: as §1, §2

HIV-1 protease = target: T1, HIV-1 protease (Human immunodeficiency virus type 1 group M subtype B, UniProt P04585); test: Anti-HIV-1 protease activity (fluorescence labeled substrate); format: biochemical; conditions: for inhibition ratio at 0.5 ug/ml: sample concentration 0.5 ug/ml; for inhibition ratio at 2.0 ug/ml: sample concentration 2.0 ug/ml; for inhibition ratio at 10 ug/ml: sample concentration 10 ug/ml; for inhibition ratio at 50 ug/ml: sample concentration 50 ug/ml; for inhibition ratio at 250 ug/ml: sample concentration 250 ug/ml
T1 construct: The genetically engineered target enzyme (HIV-1 protease, preserved at −85° C.)
Protocol: HIV-1 protease can cut the fluorescence labeled substrate under optimal condition and reaction system, so the activity of enzyme is determined by the fluorescence in the product of enzymatic reaction. The samples are added into the reaction system to observe the inhibitive effect on the enzyme.
The samples and the reference drug Indinavir ([…].) were dissolved in DMSO or redistilled water for appropriate concentration. Each was diluted 5-fold and then added into the buffer containing fluorescence labeled substrate (MP Co.). The genetically engineered target enzyme (HIV-1 protease, preserved at −85° C.) was added to the buffer and incubated under the optimal reaction condition. The fluorescence was determined by FLUO star Galaxy fluorometer.

SMILES | TC50 (2.2.15 cells) [µg/mL] | IC50 (HBV DNA) [µg/mL] | DNA replication SI (HBV DNA) | inhibition ratio at 0.5 ug/ml (HIV-1 protease) | inhibition ratio at 2.0 ug/ml (HIV-1 protease) | inhibition ratio at 10 ug/ml (HIV-1 protease) | inhibition ratio at 50 ug/ml (HIV-1 protease) | inhibition ratio at 250 ug/ml (HIV-1 protease) | IC50 (HIV-1 protease) [µM]
CCOC(=O)c1c(C[S+]([O-])c2ccc(F)c(F)c2)n(C2CC2)c2cc(Br)c(O)c(CN3CCN(C)CC3)c12 (stereo not drawn) [Example 67, Ethyl 6-bromo-1-cyclopropyl-5-hydroxy-4-[(4-methyl-1-piperazinyl)methyl]-2-[(3,4-difluorophenyl)sulfinylmethyl]-1H-indole-3-carboxylate dihydrochloride] | 34.35 | 5.4 | 6.35 | 3.2 | 10.5 | 9.4 | 0.5 | 19.3 | –
CCOC(=O)c1c(C[S+]([O-])c2ccc(F)cc2)n(C2CC2)c2cc(Br)c(O)c(CNC(=N)N)c12 (stereo not drawn) [Example 154, Ethyl 6-bromo-1-cyclopropyl-4-(guanidinylmethyl)-5-hydroxy-2-[(4-fluorophenyl)sulfinylmethyl]-1H-indole-3-carboxylate] | 18.52 (≈ 33.6 µM) | 5.2 (≈ 9.43 µM) | 3.63 | 3.2 | 13.2 | 4.8 | 19.8 | 109.3 | 43.5
CCOC(=O)c1c(C[S+]([O-])c2ccccc2C)n(C)c2cc(Br)c(O)c(CN3CCOCC3)c12 (stereo not drawn) [Example 57, Ethyl 6-bromo-5-hydroxy-1-methyl-4-(morpholinomethyl)-2-[(2-methylphenyl)sulfinylmethyl]-1H-indole-3-carboxylate] | 51.53 (≈ 93.8 µM) | 17 (≈ 30.9 µM) | 3.03 | 6.4 | 9.2 | 1.9 | 15.5 | 41.0 | –
CCOC(=O)c1c(CSc2ccc(F)cc2)n(C2CC2)c2cc(Br)c(O)c(CN3CCN(C)CC3)c12 [Example 19, Ethyl 6-bromo-1-cyclopropyl-5-hydroxy-4-[(4-methyl-1-piperazinyl)methyl]-2-[(4-fluorophenyl)thiomethyl]-1H-indole-3-carboxylate dihydrochloride] | 37.04 | 13 | 2.85 | −5.6 | −8.9 | −8.9 | 20.7 | 63.9 | 232
CCOC(=O)c1c(C[S+]([O-])c2ccccc2)n(C)c2cc(Br)c(O)c(Cn3ccnc3)c12 (stereo not drawn) [Example 116, Ethyl 6-bromo-5-hydroxy-4-[(1-imidazolyl)methyl]-1-methyl-2-(phenylsulfinylmethyl)-1H-indole-3-carboxylate] | 8.12 (≈ 15.7 µM) | 2.56 (≈ 4.96 µM) | 3.17 | 0.4 | −2.4 | −1.5 | 11.1 | 37.5 | –
